Values belong to the molecule of their own block, whether it stands above or below them.
Legend:
Format in all cases: physicochemical
[1] = Crystal sizes measured by laser diffraction; settings: for Particle Diameter, 10% particles under given diameter / Particle Diameter, 50% particles under given diameter / Particle Diameter, 90% particles under given diameter: laser diffraction; for Particle Diameter, 10% particles under given diameter: 10% of particles under given diameter; for Particle Diameter, 50% particles under given diameter: 50% of particles under given diameter; for Particle Diameter, 90% particles under given diameter: 90% of particles under given diameter
Description: The sizes of the crystals of one batch of Product A ((5-fluoro-2-methyl-3-quinolin-2-ylmethylindo-1-yl)-acetic acid recrystallised from DMSO/water as described above in Example 1, step 4) and three batches of Product B ((5-fluoro-2-methyl-3-quinolin-2-ylmethylindo-1-yl)-acetic acid recrystallised from DMSO/water and then treated with potassium carbonate and citric acid as described above in Example 1, step 4a) were measured by laser diffraction and compared.

pKa of the acid = experiment: pKa of the acid
From the text: The term “weak acid” as used in step (ii) of the method is a term known in the art, and means an acid that partially dissociates in an aqueous solution.

Solubility in solvents = settings: in most solvents

diameter of 90% of the crystals ([1]; recrystallised from DMSO/water): 50-70 μm | pKa (pKa of the acid): 2.8 | solubility (Solubility in solvents): sparingly soluble in most solvents
SMILES: Cc1c(Cc2ccc3ccccc3n2)c2cc(F)ccc2n1CC(=O)O [(5-fluoro-2-methyl-3-quinolin-2-ylmethyl-indol-1-yl)-acetic acid]

Particle Diameter, 10% particles under given diameter ([1]; listed as A): 11.93 μm | Particle Diameter, 10% particles under given diameter ([1]; listed as product A): less than 10 μm | Particle Diameter, 50% particles under given diameter [1]: 30.13 μm | Particle Diameter, 90% particles under given diameter ([1]; listed as A): 52.13 μm
SMILES: Cc1c(Cc2ccc3ccccc3n2)c2cc(F)ccc2n1CC(=O)O [Product A, (5-fluoro-2-methyl-3-quinolin-2-ylmethylindo-1-yl)-acetic acid]

Particle Diameter, 10% particles under given diameter ([1]; listed as B (Batch 1)): 0.10 μm | Particle Diameter, 10% particles under given diameter ([1]; listed as B (Batch 2)): 0.20 μm | Particle Diameter, 10% particles under given diameter ([1]; listed as B (Batch 3)): 0.11 μm | Particle Diameter, 50% particles under given diameter ([1]; listed as B (Batch 1)): 0.27 μm | Particle Diameter, 50% particles under given diameter ([1]; listed as B (Batch 2)): 0.37 μm | Particle Diameter, 50% particles under given diameter ([1]; listed as B (Batch 3)): 0.31 μm | Particle Diameter, 90% particles under given diameter ([1]; listed as B (Batch 1)): 0.92 μm | Particle Diameter, 90% particles under given diameter ([1]; listed as B (Batch 2)): 0.80 μm | Particle Diameter, 90% particles under given diameter ([1]; listed as B (Batch 3)): 1.53 μm | Particle Diameter, 90% particles under given diameter ([1]; listed as product B): less than 2 μm
SMILES: Cc1c(Cc2ccc3ccccc3n2)c2cc(F)ccc2n1CC(=O)O [Product B, (5-fluoro-2-methyl-3-quinolin-2-ylmethylindo-1-yl)-acetic acid]

From US20100041699A1, “MICROCRYSTALLINE (5-FLUORO-2-METHYL-3-QUINOLIN-2-YLMETHYL-INDOL-1-YL) ACETIC ACID” (OXAGEN LIMITED, priority 2005, published 2010)
